Data on one compound can be found in patent US8927489B2, “Sustained release preparation of pro-insulin C-peptide” (Cebix Incorporated, priority 2005, dated 2015).

Data set [1] in a line: Subcutaneous administration of C-peptide formulations in rats: C-peptide in serum. The format is in vivo, Sprague-Dawley male rats. The conditions noted are these: rat, sc, 75 nmole/kg as a common aqueous solution, within 2 h, data not shown, read-out: serum concentration of C-peptide. Here is the method:
About 1 ml of each sample was transferred to a plastic syringe with a Luer-lok Tip (Becton Dickinson), which then was sealed with a Combi Stopper (Braun). Prior to administration a 23G Microlance (Becton Dickinson) was connected to the syringe. Each syringe was weighed before and after administration to the animal.
Thirty Sprague-Dawley male rats with a body weight of about 300 g were divided into 5 groups of 6 animals to test the uptake of C-peptide in the formulations outlined above. […] The serum obtained by centrifugation was collected and stored at −80° C. until analysis. Determination of C-peptide in serum was performed by an automatic immunoassay system (AutoDELFIA™ C-peptide, Perkin Elmer, Wallac Oy, Turku, Finland), with a detection limit of 0.005 nM and a precision below 5%. To fit into the calibration curve, the samples were diluted prior to analysis 100 times.

The conditions of data set [2]: cited from earlier work.
For data set [3] the following is noted: dose injected into a rat; cited from earlier work.

Each structure is given as a SMILES string.

Regarding `CC(C)C[C@H](NC(=O)[C@H](C)NC(=O)[C@H](CC(C)C)NC(=O)[C@@H]1CCCN1C(=O)[C@H](CCC(N)=O)NC(=O)[C@H](CC(C)C)NC(=O)[C@H](CO)NC(=O)CNC(=O)[C@H](C)NC(=O)CNC(=O)[C@@H]1CCCN1C(=O)CNC(=O)CNC(=O)CNC(=O)[C@H](CC(C)C)NC(=O)[C@H](CCC(=O)O)NC(=O)[C@@H](NC(=O)[C@H](CCC(N)=O)NC(=O)CNC(=O)[C@@H](NC(=O)[C@H](CCC(N)=O)NC(=O)[C@H](CC(C)C)NC(=O)[C@H](CC(=O)O)NC(=O)[C@H](CCC(=O)O)NC(=O)[C@H](C)NC(=O)[C@@H](N)CCC(=O)O)C(C)C)C(C)C)C(=O)N[C@@H](CCC(=O)O)C(=O)NCC(=O)N[C@@H](CO)C(=O)N[C@@H](CC(C)C)C(=O)N[C@@H](CCC(N)=O)C(=O)O` [C-peptide, proinsulin C-peptide], the level at time molar in data set [1] is less than 1 nM. Also, the “in vivo half life circulating in blood” value in data set [2] is recorded as “approximately 30 minutes”. Further, the “time within which an injected dose has disappeared entirely from circulation” value in data set [3] was 2 to 3 h.
